Structures can show the parent of a compound that is named as a salt.
Key:
human GPX2 = molecular target: T1, human GPX2 (Homo sapiens, UniProt P18283); test: GPX2 activity assay (follow-up isoform specificity); assay type: biochemical; conditions: for IC50: IC50 of resulting CRC, Table 2; for inhibition of GPX2: Fig. 9 pan-selenoprotein inhibitors
T1 construct: made in house
T1 sequence (P18283 1-190): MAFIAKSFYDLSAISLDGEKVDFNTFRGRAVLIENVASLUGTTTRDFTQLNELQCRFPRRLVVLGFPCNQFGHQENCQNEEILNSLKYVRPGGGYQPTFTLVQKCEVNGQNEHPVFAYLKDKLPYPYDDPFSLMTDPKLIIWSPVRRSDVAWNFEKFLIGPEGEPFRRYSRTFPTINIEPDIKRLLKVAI
Description: (§1) The compound plates were prepared as described previously. Purified recombinant human GPX1, GPX2, GPX4, GR, and TXNRD1 were produced and purified as previously reported [[48], [49], [50]]. As production of GPX2 was not optimized at the onset of screening, only GPX1 and GPX4 underwent library screening, and GPX2 was used as a follow-up.
(§2) Follow-up and orthogonal assays were run in quadruplicate unless otherwise stated. Assay schemes are illustrated in Fig. 1.
Previous work has shown similarities in the substrate specificities of GPX1 and GPX2, and a more unique substrate profile of GPX4 [8].
The GPX2 isoform of human selenoprotein GPXs is found in epithelial cells and has similar substrate specificity with GPX1, but not as much with GPX4 [8]. Additionally, GPX1 and GPX2 both form homotetramers and share similarities in structural homology, although GPX2 has a much slower turnover rate.

GPX1 [1] = molecular target: T2, GPX1 (Homo sapiens, UniProt P07203); test: GR-coupled GPX1 activity assay (NADPH fluorescence, CHP substrate); assay type: biochemical; conditions: for IC50: IC50 of resulting CRC, Table 2, read-out: IC50 GPx1; for inhibition of GPX1: Fig. 9 pan-selenoprotein inhibitors
T2 construct: made in house; host or cells: E. coli
T2 sequence (P07203 1-203): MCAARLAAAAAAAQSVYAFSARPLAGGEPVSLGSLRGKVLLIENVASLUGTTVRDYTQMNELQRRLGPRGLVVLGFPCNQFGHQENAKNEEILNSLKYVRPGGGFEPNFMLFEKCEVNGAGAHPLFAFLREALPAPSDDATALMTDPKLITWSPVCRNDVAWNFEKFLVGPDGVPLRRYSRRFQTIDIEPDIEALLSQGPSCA
Description: as §1, §2
(§3) To measure GPX activity, assays were performed in 1536-well format in black medium-binding solid-bottom plates (Greiner). These assay conditions were optimized for high-throughput screening from an assay first described by Paglia and Valentine. GPX activity is measured indirectly by coupling the reaction with GR whereby GPX reduces hydroperoxide by oxidizing two GSH to GSSG and the oxidized glutathione is recycled to its reduced state by GR and NADPH (Fig. 1B). The rate of consumption of NADPH is directly proportional to the activity of GPX and can be measured by the decrease in fluorescence at 340 nm/450 nm.
(§4) First, 3 μL of enzyme in TES assay buffer (50 mM Tris-HCl, 2 mM EDTA (pH 7.5), 150 mM NaCl with enzyme [10 nM GPX1, 200 nM GPX4 ] and BSA [0.01%]) was added to columns 3–48 of 1536-well plates using a BioRAPTR Flying Reagent Dispenser (Let's Go Robotics (LGR), Carlsbad, CA). A no-enzyme control (0.01% BSA in TES assay buffer) was added to columns 1–2. Compounds (25 nL, library and DMSO controls) were added to each well with a pin tool (Kalypsys), and the plates were incubated for 30 min at room temperature before 1 μL of master mix (100 nM GR, 1 mM GSH, 0.5 mM NADPH in TES buffer) was added. 1 μL of cumene hydroperoxide (CHP) ([0.5 mM] in 50% EtOH) was then added within 5 min to initiate the reaction. Fluorescence at 340/450 nm was measured using a ViewLux multimodal detector (PerkinElmer, Waltham, MA) at initial t = 0 and endpoint t = 15 min (GPX1) or t = 20 min (GPX4).
(§5) Follow-up confirmation assays were also run in 96-well format using medium binding clear 96-well SpectraPlate microplates (PerkinElmer) and NADPH absorbance at 340 nm was measured every 30 s for 30 min using an Infinite® M Nano (Tecan).
(§6) Percent activity was determined by first calculating delta RFU (decrease in fluorescence between t = 0 and t = 20/30 min in primary GPX, GR counter-screen, and TXNRD1 assays, or increase in fluorescence between t = 0 and t = 20 min in the Monobromobimane GPX endpoint assay), and normalizing enzyme activity using median delta RFU values for DMSO-treated enzyme control, and DMSO-treated no-enzyme controls.
(§7) Compound inhibitory activity in the qHTS assays was determined by plotting dose-response data for each sample and fitting with a four-parameter logistic fit to assess IC50 values, efficacy (maximal response), and AUC (area under the curve), as previously described. Hits were classified by the quality of the concentration-response curves (CRC). Curve classes −1.1 and −1.2 being the highest-confidence actives with complete CRCs and classes −2.1 and −2.2 being lower-confidence actives with incomplete CRCs.

GPX4 = molecular target: T3, GPX4 (Homo sapiens, UniProt P36969); test: GR-coupled GPX4 activity assay (NADPH fluorescence, CHP substrate); assay type: biochemical; conditions: for IC50: IC50 of resulting CRC, Table 2, read-out: IC50 GPx4; for inhibition of GPX4: Fig. 9 pan-selenoprotein inhibitors
T3 construct: made in house; host or cells: E. coli
T3 sequence (P36969 1-170 isoform P36969-2): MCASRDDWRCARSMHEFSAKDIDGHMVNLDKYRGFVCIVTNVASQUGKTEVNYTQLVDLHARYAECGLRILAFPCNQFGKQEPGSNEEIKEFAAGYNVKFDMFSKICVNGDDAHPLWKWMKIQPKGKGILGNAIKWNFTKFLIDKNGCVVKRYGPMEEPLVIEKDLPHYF
Description: as §1, §2, §3, §4, §5, §6, §7

GPX1 [2] = molecular target: T2, GPX1; test: nanoDSF thermal stabilization, GPX1; assay type: binding; conditions: for GSH Binding (ΔTm) GPx1; shift in nanoDSF melting temperature / Tm GPX1 (nanoDSF): first or only inflection point; for thermal stabilization of GPX1: nanoDSF
Description: Thermal stabilization of enzyme ± DMSO or ± compound was carried out in a Prometheus NT.48 instrument (NanoTemper Technologies) with an excitation wavelength of 280 nm. Intrinsic fluorescence at 330 nm and 350 nm was monitored while heating. Capillaries were filled with ∼10 μL of a solution of GPX1/4 (1 mg/mL), ± small molecule (100 μM) or DMSO, in TES buffer and placed into the instrument. The capillaries were subjected to a temperature range from 30 to 90 °C at a ramp rate of 2 °C/min. The ratio of the recorded emission intensities (350nm/330 nm) were plotted as a function of temperature. This ratio and first derivatives were calculated using the NanoTemper software and were plotted using GraphPad Prism.

human TXNRD1 = molecular target: T4, human TXNRD1 (Homo sapiens, UniProt Q16881); test: Thioredoxin reductase 1 (TXNRD1) inhibition assay (selenite reduction); assay type: biochemical; conditions: Fig. 9 pan-selenoprotein inhibitors
T4 construct: made in house
T4 sequence (Q16881 1-499 isoform Q16881-5): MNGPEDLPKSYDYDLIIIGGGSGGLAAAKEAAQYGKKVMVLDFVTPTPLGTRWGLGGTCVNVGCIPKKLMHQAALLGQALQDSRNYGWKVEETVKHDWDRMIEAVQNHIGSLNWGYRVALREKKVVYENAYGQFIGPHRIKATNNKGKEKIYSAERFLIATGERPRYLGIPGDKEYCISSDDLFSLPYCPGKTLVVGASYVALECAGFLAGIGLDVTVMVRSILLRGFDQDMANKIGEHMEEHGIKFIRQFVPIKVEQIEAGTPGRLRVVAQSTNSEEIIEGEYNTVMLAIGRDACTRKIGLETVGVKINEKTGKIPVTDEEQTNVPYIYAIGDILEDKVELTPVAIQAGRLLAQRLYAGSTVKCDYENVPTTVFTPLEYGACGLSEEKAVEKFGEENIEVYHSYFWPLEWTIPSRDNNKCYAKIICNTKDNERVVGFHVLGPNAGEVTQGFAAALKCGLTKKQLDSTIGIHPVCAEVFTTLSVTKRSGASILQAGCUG
Description: as §1, §2
TXNRD1 activity was assessed using a modified 1536-well TXNRD1 inhibition assay, based upon TXNRD1-catalyzed selenite reduction as previously described (Fig. 1D). […] TE buffer was dispensed into column 1 and 2 as a no-enzyme control. Finally, 1 μL of sodium selenite in TE buffer was dispensed into each well for final concentrations of 90 nM hTXNRD1, 0.4 mM NADPH, and 0.4 mM sodium selenite. The plate was read in a Viewlux multimodal detector in kinetic mode and fluorescence at 340 nm/450 nm was measured every minute for 8 min.
as §6, §7

[3] = molecular target: T5, GR (glutathione reductase) (Homo sapiens, UniProt P00390); test: GR counter-assay; assay type: biochemical; conditions: Fig. 9 pan-selenoprotein inhibitors
T5 construct: made in house
T5 sequence (P00390 44-522): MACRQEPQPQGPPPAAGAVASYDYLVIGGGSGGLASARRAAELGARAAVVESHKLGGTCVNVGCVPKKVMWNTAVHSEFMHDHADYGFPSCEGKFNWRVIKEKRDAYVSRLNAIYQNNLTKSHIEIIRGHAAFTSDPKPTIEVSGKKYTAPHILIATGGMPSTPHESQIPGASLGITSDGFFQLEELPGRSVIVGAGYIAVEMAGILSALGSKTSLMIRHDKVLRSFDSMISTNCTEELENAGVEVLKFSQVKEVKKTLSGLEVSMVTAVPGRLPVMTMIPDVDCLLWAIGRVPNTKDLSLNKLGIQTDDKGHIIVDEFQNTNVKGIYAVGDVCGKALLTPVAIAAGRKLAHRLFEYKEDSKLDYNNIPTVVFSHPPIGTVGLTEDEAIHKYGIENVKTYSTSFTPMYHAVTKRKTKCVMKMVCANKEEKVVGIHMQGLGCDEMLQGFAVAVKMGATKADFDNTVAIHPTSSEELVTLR
Description: as §1, §2
To identify false positive compounds that interfere with the primary assay through inhibition of GR, ‘hits’ from the primary screening were run against a GR counter assay to identify this possible off-target inhibition (Fig. 1C). Briefly, 3 μL enzyme mixture (100 nM GR, 0.01% BSA in TES buffer) was dispensed into columns […] of a 1536-well black medium-binding solid-bottom plates. The no-enzyme control (0.01% BSA in TES buffer) was included in column 1 and 2. Compounds and controls (23 nL) were added to each well with a pin tool (Kalypsys), and the plates were incubated for 30 min before 2 μL of substrate mixture (1 mM GSSG 0.4 mM NADPH in TES buffer) was added to each well and absorbance at 340 nm was measured at t = 0 and t = 20 min using a ViewLux Multimodal detector (PerkinElmer).
as §6, §7

[4] = 100 μM small molecule vs DMSO control

Compound | IC50 (human GPX2) [µM] | IC50 (GPX1 [1]) [µM] | IC50 (GPX4) [µM] | GSH Binding (ΔTm) GPx1; shift in nanoDSF melting temperature (GPX1 [2]; [4]) | Tm GPX1 (nanoDSF) (GPX1 [2]; 100 μM, DMSO control Tm 42.5°C) [°C] | thermal stabilization of GPX1 (GPX1 [2]) | GSH Binding (ΔTm) GPx1; shift in nanoDSF melting temperature, second inflection point (GPX1 [2]; 100 μM small molecule vs DMSO control, second inflection point) | Tm GPX1 (nanoDSF), second inflection point (GPX1 [2]; 100 μM, DMSO control Tm 42.5°C) [°C] | inhibition of TXNRD1 (human TXNRD1) | inhibition of GR [3] | inhibition of GPX2 (human GPX2) | inhibition of GPX1 (GPX1 [1]) | inhibition of GPX4 (GPX4)
O=C(NNCS(=O)(=O)O)c1ccncc1 [Isoniazid sodium methanesulfonate] | 1.7 | 5.2 | 4.6 |  |  |  |  |  |  |  |  |  | 
CO[C@@]1(NC(=O)Cc2cccs2)C(=O)N2C(C(=O)O)=C(COC(N)=O)CS[C@@H]21 [Cefoxitin sodium salt] | > 20 | 9.3 |  | +0.4 °C | 42.9 | did not show any thermal stabilization |  |  |  |  |  |  | 
O=C(O)C(S)C(S)C(=O)O (stereo not drawn) [2,3-Dimercaptosuccinic acid] | 2.3 | 5.2 |  | -0.9 °C | 41.6 |  |  |  |  |  |  |  | 
O=C(N[C@H]1CCS[C@H]2CCC[C@@H](C(=O)O)N2C1=O)[C@@H](S)Cc1ccccc1 [Omapatrilat] | 4.7 | 5.7 |  | +6.3 °C | 48.8 | significant shifts in the melting temperature of GPX1 | +12.8 °C | 55.3 |  |  |  |  | 
COc1ccc2[nH]c([S+]([O-])Cc3ncc(C)c(OC)c3C)nc2n1 (stereo not drawn) [Tenatoprazole] | 7.7 | 8.9 |  | +7.5 °C | 50.0 | significant shifts in the melting temperature of GPX1 |  |  |  |  |  |  | 
Nc1nc(/C(=C/CC(=O)O)C(=O)N[C@@H]2C(=O)N3C(C(=O)O)=CCS[C@H]23)cs1 [Ceftibuten] | 10 | 18.5 |  | -0.2 °C | 42.3 | did not show any thermal stabilization |  |  |  |  |  |  | 
CO[C@@]1(NC(=O)C2SC(=C(C(N)=O)C(=O)O)S2)C(=O)N2C(C(=O)O)=C(CSc3nnnn3C)CS[C@@H]21 (stereo partly drawn) [cefotetan sodium] |  |  |  |  |  |  |  |  | inhibited all tested selenoproteins | not GR | inhibited all tested selenoproteins | inhibited all tested selenoproteins | inhibited all tested selenoproteins
Cc1ccc(NC(=O)N2CCN(c3nc(N)nc4sc(-c5cccnc5)nc34)CC2)cc1 [PI4KIII beta inhibitor 3] |  |  |  |  |  |  |  |  | inhibited all tested selenoproteins | not GR | inhibited all tested selenoproteins | inhibited all tested selenoproteins | inhibited all tested selenoproteins
Cc1c(N(C)CS(=O)(=O)O)c(=O)n(-c2ccccc2)n1C [Metamizole (dipyrone)] | 3.3 | 8.1 | 8.8 |  |  |  |  |  |  |  |  |  | 
